Assays:
Assay in all cases: relative viability (nuclei count vs DMSO), 5 days (fraction); higher = more cells survive
5-Fluorouracil + OSI-027 = compound: O=c1[nH]cc(F)c(=O)[nH]1 [5-Fluorouracil] + COc1cccc2cc(-c3nc([C@H]4CC[C@H](C(=O)O)CC4)n4ncnc(N)c34)[nH]c12 [OSI-027] (partner 0.5 µM)
In short: (§1)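 Cells from lung cancer lines were seeded into 1536-well plates and, one day later, dosed by pin tool. Treatments were either a single drug or a fixed dose of an anchor drug with five library-drug doses (not always all listed) in √10 steps. After 5 days, nuclei were stained in a one-step fixation (final 0.05% Triton X-100, 1% formaldehyde, 1 ug/ml Hoechst) and counted on 4× images, and relative viability is the treated-to-vehicle nuclei ratio, as the median of duplicate plates.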

5-Fluorouracil + AZD7762 = compound: O=c1[nH]cc(F)c(=O)[nH]1 [5-Fluorouracil] + NC(=O)Nc1cc(-c2cccc(F)c2)sc1C(=O)N[C@H]1CCCNC1 [AZD7762] (partner 0.2 µM)
In short: as §1

[1] = compound: O=c1[nH]cc(F)c(=O)[nH]1 [5-Fluorouracil] + Nc1nc2[nH]cc(CCc3ccc(C(=O)N[C@@H](CCC(=O)O)C(=O)O)cc3)c2c(=O)[nH]1 [Pemetrexed] (partner 0.2 µM)
In short: as §1

[2] = compound: CN[C@@H]1C[C@H]2O[C@@](C)([C@@H]1OC)n1c3ccccc3c3c4c(c5c6ccccc6n2c5c31)C(=O)NC4 [Staurosporine] + C[C@]1(O)C[C@@H](c2nc(-c3ccc4ccc(-c5ccccc5)nc4c3)c3c(N)nccn32)C1 [Linsitinib] (partner 1 µM)
In short: as §1

| Cell Line | relative viability (5-Fluorouracil + OSI-027; first compound 0.02 µM) | relative viability (5-Fluorouracil + OSI-027; first compound 0.2 µM) | relative viability (5-Fluorouracil + OSI-027; first compound 0.6325 µM) | relative viability (5-Fluorouracil + OSI-027; first compound 2 µM) | relative viability (5-Fluorouracil + AZD7762; first compound 0.02 µM) | relative viability (5-Fluorouracil + AZD7762; first compound 0.2 µM) | relative viability (5-Fluorouracil + AZD7762; first compound 0.6325 µM) | relative viability (5-Fluorouracil + AZD7762; first compound 2 µM) | relative viability ([1]; first compound 0.02 µM) | relative viability ([1]; first compound 0.2 µM) | relative viability ([1]; first compound 0.6325 µM) | relative viability ([1]; first compound 2 µM) | relative viability ([2]; first compound 0.005 µM) | relative viability ([2]; first compound 0.01581 µM) | relative viability ([2]; first compound 0.05 µM) | relative viability ([2]; first compound 0.1581 µM) | relative viability ([2]; first compound 0.5 µM) |
| --- | --- | --- | --- | --- | --- | --- | --- | --- | --- | --- | --- | --- | --- | --- | --- | --- | --- |
| NCI-H522 | 0.714 | 0.714 | 0.722 | 0.705 | 0.948 | 0.98 | 0.755 | 0.916 | 0.891 | 1.1 | 1.03 | 0.95 | – | – | – | – | – |
| NCI-H1650 | 0.515 | 0.496 | 0.383 | 0.349 | – | – | – | – | 0.362 | 0.335 | 0.353 | 0.286 | – | – | – | – | – |
| SK-LU-1 | 0.374 | 0.309 | 0.342 | 0.321 | – | – | – | – | 0.959 | 1.01 | 0.916 | 0.763 | 0.313 | 0.263 | 0.205 | 0.2 | 0.145 |
| COR-L 105 | 0.649 | 0.899 | 0.66 | 0.443 | – | – | – | – | 1.2 | 1.14 | 0.87 | 0.614 | 0.561 | 0.353 | 0.246 | 0.261 | 0.213 |
| NCI-H2228 | 0.404 | 0.55 | 0.332 | 0.329 | – | – | – | – | 0.3 | 0.334 | 0.39 | 0.367 | 0.608 | 0.483 | 0.141 | 0.183 | 0.113 |
| SW 1573 | 0.548 | 0.73 | 0.633 | 0.327 | – | – | – | – | 0.853 | 0.815 | 0.704 | 0.408 | 0.586 | 0.449 | 0.144 | 0.131 | 0.107 |
| A549 | – | – | – | – | – | – | – | – | – | – | – | – | 0.366 | 0.227 | 0.0839 | 0.0873 | 0.0598 |
| NCI-H1648 | 0.246 | 0.269 | 0.264 | 0.245 | 0.582 | 0.831 | 0.493 | 0.435 | 0.816 | 0.864 | 0.572 | 0.332 | – | – | – | – | – |
| NCI-H1623 | 0.384 | 0.339 | 0.339 | 0.323 | – | – | – | – | – | – | – | – | – | – | – | – | – |
| Calu-6 | – | – | – | – | – | – | – | – | – | – | – | – | 0.92 | 0.776 | 0.3 | 0.0858 | 0.0592 |
| NCI-H1563 | 0.679 | 0.791 | 0.7 | 0.696 | – | – | – | – | 0.711 | 0.924 | 0.786 | 0.732 | 0.752 | 0.611 | 0.733 | 0.654 | 0.478 |
| NCI-H2342 | 0.698 | 0.731 | 0.735 | 0.638 | 0.473 | 0.622 | 0.557 | 0.546 | 0.744 | 0.84 | 0.776 | 0.725 | – | – | – | – | – |
| COR-L23 | 0.794 | 0.539 | 0.323 | 0.245 | – | – | – | – | 0.194 | 0.195 | 0.194 | 0.185 | 0.534 | 0.27 | 0.134 | 0.0552 | 0.041 |
| NCI-H520 | 0.191 | 0.294 | 0.252 | 0.226 | – | – | – | – | 0.625 | 0.742 | 0.541 | 0.41 | 1.05 | 0.824 | 0.604 | 0.213 | 0.128 |
| NCI-H661 | 0.674 | – | 0.661 | 0.691 | – | – | – | – | 0.998 | 0.905 | 0.947 | 0.883 | 0.458 | 0.384 | 0.258 | 0.245 | 0.226 |
| NCI-H1299 | – | – | – | – | – | – | – | – | – | – | – | – | 0.785 | 0.305 | 0.206 | 0.143 | 0.113 |
| NCI-H2009 | 0.618 | 0.674 | 0.478 | 0.379 | – | – | – | – | 1.15 | 0.968 | 0.85 | 0.656 | 0.681 | 0.269 | 0.216 | 0.18 | 0.116 |
| NCI-H727 | 0.639 | 0.651 | 0.647 | 0.574 | 0.697 | 0.718 | 0.527 | 0.605 | – | – | – | – | 0.225 | 0.234 | 0.268 | 0.277 | 0.129 |
| ChaGo-K-1 | 0.608 | 0.536 | 0.401 | 0.425 | 0.883 | 0.917 | 0.609 | 0.383 | 0.252 | 0.262 | 0.26 | 0.261 | – | – | – | – | – |
| SK-MES-1 | 0.577 | 0.367 | 0.253 | 0.196 | – | – | – | – | 0.837 | 0.473 | 0.351 | 0.303 | 0.836 | 0.403 | 0.318 | 0.267 | 0.153 |
| SW 900 | 0.505 | 0.501 | 0.44 | 0.423 | 0.739 | 0.695 | 0.543 | 0.398 | 0.468 | 0.491 | 0.518 | 0.385 | – | – | – | – | – |
| NCI-H1703 | – | – | – | – | 0.103 | 0.072 | 0.118 | 0.118 | – | – | – | – | 0.561 | 0.291 | 0.17 | 0.146 | 0.083 |
| EBC-1 | – | – | – | – | – | – | – | – | – | – | – | – | 0.738 | 0.523 | 0.181 | 0.122 | 0.111 |
| NCI-H2023 | 0.369 | 0.176 | 0.103 | 0.0879 | – | – | – | – | 0.212 | 0.129 | 0.126 | 0.115 | 0.419 | 0.17 | 0.197 | 0.122 | 0.0751 |
| IA-LM | – | – | – | – | – | – | – | – | – | – | – | – | – | 0.271 | 0.16 | 0.128 | 0.07 |
| ABC-1 | 0.453 | 0.518 | 0.53 | 0.261 | 0.754 | 0.933 | 0.722 | 0.634 | – | – | – | – | 0.195 | 0.209 | 0.145 | 0.108 | 0.0957 |
| NCI-H2170 | 0.681 | 0.594 | 0.459 | 0.37 | 0.793 | 0.718 | 0.317 | 0.236 | 0.363 | 0.266 | 0.242 | 0.255 | – | – | – | – | – |

From the supplement of paper PMC10307832
